Here are results for four compounds from patent US20080051285A1 (priority 2004, published 2008).

This test concerns Pyricularia oryzae. The test is classed as in vivo. To be noted: individual active compound, protective, inoculated next day, assessed after 6 days.

Read-outs that look alike come from different tables or passages of the source.

As for `CC1CCN(c2c(-c3c(F)cccc3Cl)c(Cl)nc3ncnn23)CC1` [A], the “Efficacy in % of the untreated control” value is, setting by setting: (1 ppm in the spray liquor) 0%; (4 ppm in the spray liquor) 13%.

On to `C[C@H](Nc1c(-c2c(F)cc(F)cc2F)c(Cl)nc2ncnn12)C(F)(F)F` [B], for which the “Efficacy in % of the untreated control” value (1 ppm in the spray liquor) was 13% and the “Efficacy in % of the untreated control” value (4 ppm in the spray liquor) was found to be 57%.

As to `CC1CCN(c2c(-c3c(F)cc(F)cc3F)c(Cl)nc3ncnn23)CC1` [compound I, 5-chloro-7-(4-methylpiperidin-1-yl)-6-(2,4,6-trifluorophenyl)-[1,2,4]tri-azolo[1,5-a]pyrimidine], the “Efficacy in % of the untreated control” value is listed as 13% (1 ppm in the spray liquor) and 28% (4 ppm in the spray liquor).

Take `C=CC1(C)OC(=O)N(c2cc(Cl)cc(Cl)c2)C1=O` (centres unmarked) [compound II, 3-(3,5-dichlorophenyl)-5-methyl-5-vinyloxazolidine-2,4-dione]: the “Efficacy in % of the untreated control” value runs as follows: (1 ppm in the spray liquor) 0%; (4 ppm in the spray liquor) 0%.
